Test results from PubChem BioAssay (NCI).
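Following 48 hours of exposure in 96-well plates, responses at five concentrations were used to interpolate endpoints linearly. GI50 = concentration required for 50% inhibition of growth. TGI: total growth inhibition.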

Key:
Experiment in all cases: NCI-60 cell line screen, 48 h
KM12 colon = tested on: KM12 colon
NCI-H23 lung = tested on: NCI-H23 lung
HOP-62 NSCLC = tested on: HOP-62 NSCLC
ACHN renal = tested on: ACHN renal
UO-31 renal = tested on: UO-31 renal
SK-MEL-28 melanoma = tested on: SK-MEL-28 melanoma
SN12C renal = tested on: SN12C renal
OVCAR-5 ovarian = tested on: OVCAR-5 ovarian
786-0 renal = tested on: 786-0 renal
SR leukemia = tested on: SR leukemia
OVCAR-3 ovarian = tested on: OVCAR-3 ovarian
SF-539 CNS = tested on: SF-539 CNS
CAKI-1 renal = tested on: CAKI-1 renal
OVCAR-4 ovarian = tested on: OVCAR-4 ovarian
EKVX NSCLC = tested on: EKVX NSCLC
RPMI-8226 leukemia = tested on: RPMI-8226 leukemia
HCC-2998 colon = tested on: HCC-2998 colon
TK-10 renal = tested on: TK-10 renal
SNB-75 CNS = tested on: SNB-75 CNS
MALME-3M melanoma = tested on: MALME-3M melanoma
PC-3 prostate = tested on: PC-3 prostate
SW-620 colon = tested on: SW-620 colon
HT29 colon = tested on: HT29 colon
T-47D breast = tested on: T-47D breast
OVCAR-8 ovarian = tested on: OVCAR-8 ovarian
HOP-92 NSCLC = tested on: HOP-92 NSCLC
HS 578T breast = tested on: HS 578T breast
MCF7 breast = tested on: MCF7 breast
SK-MEL-2 melanoma = tested on: SK-MEL-2 melanoma
RXF 393 renal = tested on: RXF 393 renal
NCI-H522 lung = tested on: NCI-H522 lung
HCT-15 colon = tested on: HCT-15 colon
SK-MEL-5 melanoma = tested on: SK-MEL-5 melanoma
LOX IMVI melanoma = tested on: LOX IMVI melanoma
IGROV1 ovarian = tested on: IGROV1 ovarian
NCI/ADR-RES ovarian = tested on: NCI/ADR-RES ovarian
SF-268 CNS = tested on: SF-268 CNS
DU-145 prostate = tested on: DU-145 prostate
BT-549 breast = tested on: BT-549 breast
HL-60(TB) leukemia = tested on: HL-60(TB) leukemia
CCRF-CEM leukemia = tested on: CCRF-CEM leukemia
HCT-116 colon = tested on: HCT-116 colon
SNB-19 CNS = tested on: SNB-19 CNS
A549 NSCLC = tested on: A549 NSCLC
NCI-H460 lung = tested on: NCI-H460 lung
M14 melanoma = tested on: M14 melanoma
K-562 leukemia = tested on: K-562 leukemia
SK-OV-3 ovarian = tested on: SK-OV-3 ovarian
A498 renal = tested on: A498 renal
NCI-H226 lung = tested on: NCI-H226 lung
U251 CNS = tested on: U251 CNS
SF-295 CNS = tested on: SF-295 CNS
MDA-MB-435 = tested on: MDA-MB-435
COLO 205 colon = tested on: COLO 205 colon
UACC-257 melanoma = tested on: UACC-257 melanoma
UACC-62 melanoma = tested on: UACC-62 melanoma
MOLT-4 leukemia = tested on: MOLT-4 leukemia
MDA-MB-231 breast = tested on: MDA-MB-231 breast

Nc1nc(Cl)nc2c1ncn2C1OC(CO)C(O)C1F (stereo unspecified)
GI50 (KM12 colon): 1800 nM
TGI (KM12 colon): > 100000 nM
GI50 (NCI-H23 lung): 20 nM
TGI (NCI-H23 lung): 626 nM
GI50 (HOP-62 NSCLC): 109 nM
TGI (HOP-62 NSCLC): 22400 nM
GI50 (ACHN renal): 169 nM
TGI (ACHN renal): > 21200 nM
GI50 (UO-31 renal): 228 nM
TGI (UO-31 renal): > 26000 nM
GI50 (SK-MEL-28 melanoma): > 9440 nM
TGI (SK-MEL-28 melanoma): > 100000 nM
GI50 (SN12C renal): < 43.9 nM
GI50 (OVCAR-5 ovarian): 5680 nM
TGI (OVCAR-5 ovarian): > 100000 nM
GI50 (786-0 renal): 87.6 nM
TGI (786-0 renal): 13600 nM
GI50 (SR leukemia): 1670 nM
TGI (SR leukemia): 5260 nM
GI50 (OVCAR-3 ovarian): > 100000 nM
TGI (OVCAR-3 ovarian): > 100000 nM
GI50 (SF-539 CNS): 2070 nM
TGI (SF-539 CNS): 7480 nM
GI50 (CAKI-1 renal): 35.1 nM
TGI (CAKI-1 renal): 959 nM
GI50 (OVCAR-4 ovarian): > 82200 nM
TGI (OVCAR-4 ovarian): > 100000 nM
GI50 (EKVX NSCLC): 1460 nM
TGI (EKVX NSCLC): > 100000 nM
GI50 (RPMI-8226 leukemia): 29800 nM
TGI (RPMI-8226 leukemia): > 100000 nM
GI50 (HCC-2998 colon): < 30.4 nM
GI50 (TK-10 renal): 550 nM
TGI (TK-10 renal): > 83000 nM
GI50 (SNB-75 CNS): 731 nM
TGI (SNB-75 CNS): > 26100 nM
GI50 (MALME-3M melanoma): 195 nM
TGI (MALME-3M melanoma): > 46200 nM
GI50 (PC-3 prostate): 99700 nM
TGI (PC-3 prostate): > 100000 nM
GI50 (SW-620 colon): 839 nM
TGI (SW-620 colon): > 100000 nM
GI50 (HT29 colon): 445 nM
TGI (HT29 colon): > 100000 nM
GI50 (T-47D breast): 10100 nM
TGI (T-47D breast): > 100000 nM
GI50 (OVCAR-8 ovarian): 29.2 nM
TGI (OVCAR-8 ovarian): > 100000 nM
GI50 (HOP-92 NSCLC): 124 nM
TGI (HOP-92 NSCLC): > 68000 nM
GI50 (HS 578T breast): 4710 nM
TGI (HS 578T breast): > 80700 nM
GI50 (MCF7 breast): 163 nM
TGI (MCF7 breast): > 100000 nM
GI50 (SK-MEL-2 melanoma): > 100000 nM
TGI (SK-MEL-2 melanoma): > 100000 nM
GI50 (RXF 393 renal): 12800 nM
TGI (RXF 393 renal): > 100000 nM
GI50 (NCI-H522 lung): > 68200 nM
TGI (NCI-H522 lung): > 100000 nM
GI50 (HCT-15 colon): 5960 nM
TGI (HCT-15 colon): > 100000 nM
GI50 (SK-MEL-5 melanoma): 168 nM
TGI (SK-MEL-5 melanoma): > 8700 nM
GI50 (LOX IMVI melanoma): 2180 nM
TGI (LOX IMVI melanoma): > 100000 nM
GI50 (IGROV1 ovarian): > 18000 nM
TGI (IGROV1 ovarian): > 100000 nM
GI50 (NCI/ADR-RES ovarian): < 16.6 nM
TGI (NCI/ADR-RES ovarian): 4980 nM
GI50 (SF-268 CNS): 223 nM
TGI (SF-268 CNS): 21300 nM
GI50 (DU-145 prostate): 278 nM
GI50 (BT-549 breast): 664 nM
TGI (BT-549 breast): > 37600 nM
GI50 (HL-60(TB) leukemia): 308 nM
TGI (HL-60(TB) leukemia): > 100000 nM
TGI (CCRF-CEM leukemia): 424 nM
GI50 (HCT-116 colon): 32.2 nM
TGI (HCT-116 colon): > 100000 nM
GI50 (SNB-19 CNS): 191 nM
TGI (SNB-19 CNS): > 100000 nM
GI50 (A549 NSCLC): 144 nM
TGI (A549 NSCLC): > 100000 nM
GI50 (NCI-H460 lung): 462 nM
TGI (NCI-H460 lung): > 100000 nM
GI50 (M14 melanoma): 24 nM
TGI (M14 melanoma): 88.9 nM
GI50 (K-562 leukemia): 426 nM
TGI (K-562 leukemia): > 100000 nM
GI50 (SK-OV-3 ovarian): 355 nM
TGI (SK-OV-3 ovarian): > 100000 nM
GI50 (A498 renal): 284 nM
TGI (A498 renal): 2550 nM
GI50 (NCI-H226 lung): 216 nM
TGI (NCI-H226 lung): > 17300 nM
GI50 (U251 CNS): 213 nM
TGI (U251 CNS): > 100000 nM
GI50 (SF-295 CNS): 1680 nM
TGI (SF-295 CNS): 13500 nM
GI50 (MDA-MB-435): 47.2 nM
TGI (MDA-MB-435): > 100000 nM
GI50 (COLO 205 colon): 95.1 nM
TGI (COLO 205 colon): > 100000 nM
GI50 (UACC-257 melanoma): 4170 nM
TGI (UACC-257 melanoma): > 100000 nM
GI50 (UACC-62 melanoma): 145 nM
TGI (UACC-62 melanoma): 1700 nM
TGI (MOLT-4 leukemia): > 100000 nM
GI50 (MDA-MB-231 breast): 4930 nM
TGI (MDA-MB-231 breast): > 26500 nM
